Measurements from patent US20100137449A1, “SUBSTITUTED 1,3-CYCLOPENTADIONE MULTI-TARGET PROTEIN KINASE MODULATORS OF CANCER, ANGIOGENESIS AND THE INFLAMMATORY PATHWAYS ASSOCIATED THEREWITH” (METAPROTEOMICS, LLC, priority 2007, published 2010).

Experiments:
Test in all cases: KinaseProfiler Assay
ACK1(h) = ACK1(h) (Homo sapiens, UniProt Q07912)
CK1γ1(h) = CK1γ1(h) (Homo sapiens, UniProt Q9HCP0)
CK1δ(h) = CK1δ(h) (Homo sapiens, UniProt P48730)
EGFR(T790M)(h) = EGFR(T790M)(h) (Homo sapiens, UniProt P00533, T790M)
Sequence of EGFR(T790M)(h) (P00533 25-1210 T790M): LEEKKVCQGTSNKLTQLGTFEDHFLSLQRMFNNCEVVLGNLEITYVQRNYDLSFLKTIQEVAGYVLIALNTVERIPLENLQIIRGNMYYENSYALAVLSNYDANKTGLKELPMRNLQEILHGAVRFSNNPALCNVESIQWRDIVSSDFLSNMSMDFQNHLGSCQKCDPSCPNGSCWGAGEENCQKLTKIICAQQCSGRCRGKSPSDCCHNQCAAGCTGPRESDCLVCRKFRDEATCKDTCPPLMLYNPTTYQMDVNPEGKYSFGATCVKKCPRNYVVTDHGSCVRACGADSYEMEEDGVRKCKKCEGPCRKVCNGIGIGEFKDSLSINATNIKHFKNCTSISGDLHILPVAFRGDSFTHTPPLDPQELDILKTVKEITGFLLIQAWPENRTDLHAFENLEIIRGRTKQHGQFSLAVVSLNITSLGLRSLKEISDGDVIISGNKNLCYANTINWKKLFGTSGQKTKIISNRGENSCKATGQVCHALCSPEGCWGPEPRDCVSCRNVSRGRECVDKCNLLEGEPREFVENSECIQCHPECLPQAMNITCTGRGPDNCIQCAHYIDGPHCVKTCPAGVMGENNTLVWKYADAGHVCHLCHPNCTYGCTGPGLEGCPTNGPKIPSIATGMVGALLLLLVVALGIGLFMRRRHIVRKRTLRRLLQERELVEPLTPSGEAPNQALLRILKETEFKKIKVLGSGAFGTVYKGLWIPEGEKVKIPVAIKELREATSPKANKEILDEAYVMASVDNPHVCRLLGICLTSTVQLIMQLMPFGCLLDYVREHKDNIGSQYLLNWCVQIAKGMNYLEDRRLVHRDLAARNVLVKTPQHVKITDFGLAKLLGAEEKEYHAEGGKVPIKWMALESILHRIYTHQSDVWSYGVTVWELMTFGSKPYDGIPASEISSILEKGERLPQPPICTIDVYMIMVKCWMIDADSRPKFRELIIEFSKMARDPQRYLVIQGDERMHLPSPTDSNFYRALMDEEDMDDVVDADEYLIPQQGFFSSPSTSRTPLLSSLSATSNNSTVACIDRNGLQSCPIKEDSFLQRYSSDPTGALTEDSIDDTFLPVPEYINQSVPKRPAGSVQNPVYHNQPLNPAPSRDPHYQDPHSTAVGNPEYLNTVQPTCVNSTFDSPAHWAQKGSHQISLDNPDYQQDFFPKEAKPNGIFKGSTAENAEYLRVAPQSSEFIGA

Haspin(h) = target: T1, Haspin(h) (Homo sapiens, UniProt Q8TF76)
T1 sequence (Q8TF76 1-798): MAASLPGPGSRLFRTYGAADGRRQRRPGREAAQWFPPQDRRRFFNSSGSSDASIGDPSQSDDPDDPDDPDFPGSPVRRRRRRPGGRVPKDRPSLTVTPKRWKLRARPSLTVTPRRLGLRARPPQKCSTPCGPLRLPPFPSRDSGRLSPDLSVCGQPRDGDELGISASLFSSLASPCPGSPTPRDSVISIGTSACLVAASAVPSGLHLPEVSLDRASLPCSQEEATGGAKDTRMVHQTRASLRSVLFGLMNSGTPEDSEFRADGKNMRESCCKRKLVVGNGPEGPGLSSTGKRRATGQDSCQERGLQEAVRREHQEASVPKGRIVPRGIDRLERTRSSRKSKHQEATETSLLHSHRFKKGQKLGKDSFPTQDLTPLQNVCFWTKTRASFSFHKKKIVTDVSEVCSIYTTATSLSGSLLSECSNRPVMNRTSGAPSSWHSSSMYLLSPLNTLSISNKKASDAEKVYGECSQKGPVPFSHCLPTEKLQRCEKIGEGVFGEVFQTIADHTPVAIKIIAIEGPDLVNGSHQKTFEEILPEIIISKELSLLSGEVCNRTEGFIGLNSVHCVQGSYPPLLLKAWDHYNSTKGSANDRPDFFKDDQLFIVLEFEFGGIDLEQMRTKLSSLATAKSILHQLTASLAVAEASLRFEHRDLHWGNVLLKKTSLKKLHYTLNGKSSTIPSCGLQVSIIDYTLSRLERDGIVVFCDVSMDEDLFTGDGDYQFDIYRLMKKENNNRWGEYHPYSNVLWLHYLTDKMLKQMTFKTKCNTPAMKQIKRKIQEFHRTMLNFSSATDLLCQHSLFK

HIPK2(h) = HIPK2(h) (Homo sapiens, UniProt Q9H2X6)
Sequence of HIPK2(h) (Q9H2X6 whole entry): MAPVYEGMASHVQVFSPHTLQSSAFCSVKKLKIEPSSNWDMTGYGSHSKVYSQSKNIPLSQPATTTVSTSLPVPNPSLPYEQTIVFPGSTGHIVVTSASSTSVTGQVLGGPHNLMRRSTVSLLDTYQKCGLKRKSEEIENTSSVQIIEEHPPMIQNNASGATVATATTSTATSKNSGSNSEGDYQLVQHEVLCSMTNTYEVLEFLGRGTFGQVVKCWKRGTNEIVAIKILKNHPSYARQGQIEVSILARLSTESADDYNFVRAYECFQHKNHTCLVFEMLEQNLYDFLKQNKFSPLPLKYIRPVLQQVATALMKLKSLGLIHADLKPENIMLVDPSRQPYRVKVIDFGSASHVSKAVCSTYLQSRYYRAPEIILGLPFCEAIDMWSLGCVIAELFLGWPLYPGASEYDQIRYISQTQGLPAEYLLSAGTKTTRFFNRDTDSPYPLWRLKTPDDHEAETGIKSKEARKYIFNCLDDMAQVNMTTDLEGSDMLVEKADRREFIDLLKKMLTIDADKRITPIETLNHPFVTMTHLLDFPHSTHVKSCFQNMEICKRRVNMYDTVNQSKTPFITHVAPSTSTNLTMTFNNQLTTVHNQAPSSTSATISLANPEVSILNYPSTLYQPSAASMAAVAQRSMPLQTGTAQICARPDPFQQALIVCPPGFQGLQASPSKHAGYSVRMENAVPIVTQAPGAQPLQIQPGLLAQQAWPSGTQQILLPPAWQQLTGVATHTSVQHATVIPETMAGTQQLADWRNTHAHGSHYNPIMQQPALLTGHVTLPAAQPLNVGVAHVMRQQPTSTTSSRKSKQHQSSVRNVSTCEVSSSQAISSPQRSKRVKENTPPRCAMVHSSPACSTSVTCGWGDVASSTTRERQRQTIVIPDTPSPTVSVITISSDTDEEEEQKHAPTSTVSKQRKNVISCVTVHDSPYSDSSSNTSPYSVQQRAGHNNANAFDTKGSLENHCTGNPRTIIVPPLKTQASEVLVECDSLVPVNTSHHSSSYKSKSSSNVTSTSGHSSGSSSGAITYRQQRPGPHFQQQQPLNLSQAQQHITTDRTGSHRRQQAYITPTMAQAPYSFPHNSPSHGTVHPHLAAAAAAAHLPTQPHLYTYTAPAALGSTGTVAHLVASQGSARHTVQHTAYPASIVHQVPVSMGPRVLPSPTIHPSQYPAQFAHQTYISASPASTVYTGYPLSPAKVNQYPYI

NEK11(h) = target: T2, NEK11(h) (Homo sapiens, UniProt Q8NG66)
T2 sequence (Q8NG66 1-645): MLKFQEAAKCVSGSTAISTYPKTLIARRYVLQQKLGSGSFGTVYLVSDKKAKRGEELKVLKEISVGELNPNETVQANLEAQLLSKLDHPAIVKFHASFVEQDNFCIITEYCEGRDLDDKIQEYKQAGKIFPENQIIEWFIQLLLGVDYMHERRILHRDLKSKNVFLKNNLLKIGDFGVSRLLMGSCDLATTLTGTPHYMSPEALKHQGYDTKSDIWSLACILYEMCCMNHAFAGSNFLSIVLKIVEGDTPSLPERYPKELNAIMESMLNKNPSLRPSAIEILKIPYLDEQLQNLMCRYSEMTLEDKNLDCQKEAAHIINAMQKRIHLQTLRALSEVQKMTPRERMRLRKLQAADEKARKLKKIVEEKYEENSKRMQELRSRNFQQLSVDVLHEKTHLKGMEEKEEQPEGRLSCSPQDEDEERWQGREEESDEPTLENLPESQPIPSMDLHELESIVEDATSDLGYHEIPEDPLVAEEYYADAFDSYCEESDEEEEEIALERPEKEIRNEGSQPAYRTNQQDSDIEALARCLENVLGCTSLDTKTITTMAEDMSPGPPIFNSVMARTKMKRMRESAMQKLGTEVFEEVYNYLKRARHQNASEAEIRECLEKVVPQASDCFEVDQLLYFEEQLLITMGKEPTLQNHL

PI 3-Kinaseβ(h) = PI 3-Kinaseβ(h) (Homo sapiens, UniProt P42338)
PI 3-Kinaseδ(h) = PI 3-Kinaseδ(h) (Homo sapiens, UniProt O00329)
ROCK-I(h) = ROCK-I(h) (Homo sapiens, UniProt Q13464)
Sequence of ROCK-I(h) (Q13464 whole entry): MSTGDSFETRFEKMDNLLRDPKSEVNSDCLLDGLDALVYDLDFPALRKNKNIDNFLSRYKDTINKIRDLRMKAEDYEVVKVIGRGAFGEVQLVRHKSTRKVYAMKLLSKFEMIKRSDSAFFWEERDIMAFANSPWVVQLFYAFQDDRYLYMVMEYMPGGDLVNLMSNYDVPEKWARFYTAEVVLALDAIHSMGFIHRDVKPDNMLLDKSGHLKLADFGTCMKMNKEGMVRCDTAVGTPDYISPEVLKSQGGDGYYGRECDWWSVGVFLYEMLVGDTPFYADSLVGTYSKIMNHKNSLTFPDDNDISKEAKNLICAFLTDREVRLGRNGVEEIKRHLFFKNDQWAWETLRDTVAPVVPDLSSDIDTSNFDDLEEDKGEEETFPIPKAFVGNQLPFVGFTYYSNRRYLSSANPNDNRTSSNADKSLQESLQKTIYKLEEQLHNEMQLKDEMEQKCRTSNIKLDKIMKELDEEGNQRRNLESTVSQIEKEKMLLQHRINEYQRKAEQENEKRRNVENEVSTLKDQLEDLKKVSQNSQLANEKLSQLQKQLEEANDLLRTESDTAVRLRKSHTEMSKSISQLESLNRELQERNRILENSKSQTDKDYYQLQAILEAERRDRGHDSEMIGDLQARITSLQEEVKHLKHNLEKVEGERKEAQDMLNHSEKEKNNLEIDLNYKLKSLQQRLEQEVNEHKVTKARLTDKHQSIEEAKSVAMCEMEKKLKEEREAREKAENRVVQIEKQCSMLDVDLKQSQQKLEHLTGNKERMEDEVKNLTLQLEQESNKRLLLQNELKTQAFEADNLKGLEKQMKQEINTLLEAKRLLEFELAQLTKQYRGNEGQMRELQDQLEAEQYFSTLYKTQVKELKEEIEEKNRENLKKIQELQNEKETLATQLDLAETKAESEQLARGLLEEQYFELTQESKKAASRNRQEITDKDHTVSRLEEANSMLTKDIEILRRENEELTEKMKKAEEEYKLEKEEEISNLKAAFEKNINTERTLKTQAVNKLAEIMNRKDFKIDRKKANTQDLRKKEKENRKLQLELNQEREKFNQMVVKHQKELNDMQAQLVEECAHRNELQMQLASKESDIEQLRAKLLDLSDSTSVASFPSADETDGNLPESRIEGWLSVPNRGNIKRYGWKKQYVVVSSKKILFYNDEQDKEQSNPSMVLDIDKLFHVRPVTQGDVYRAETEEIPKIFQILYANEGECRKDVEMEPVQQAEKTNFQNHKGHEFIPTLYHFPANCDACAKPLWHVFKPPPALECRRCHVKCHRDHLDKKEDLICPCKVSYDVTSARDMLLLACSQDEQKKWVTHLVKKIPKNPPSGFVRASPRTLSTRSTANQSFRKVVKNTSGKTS

TrkB(h) = TrkB(h) (Homo sapiens, UniProt Q16620)

Sequence of CK1γ1(h) (Q9HCP0 whole entry): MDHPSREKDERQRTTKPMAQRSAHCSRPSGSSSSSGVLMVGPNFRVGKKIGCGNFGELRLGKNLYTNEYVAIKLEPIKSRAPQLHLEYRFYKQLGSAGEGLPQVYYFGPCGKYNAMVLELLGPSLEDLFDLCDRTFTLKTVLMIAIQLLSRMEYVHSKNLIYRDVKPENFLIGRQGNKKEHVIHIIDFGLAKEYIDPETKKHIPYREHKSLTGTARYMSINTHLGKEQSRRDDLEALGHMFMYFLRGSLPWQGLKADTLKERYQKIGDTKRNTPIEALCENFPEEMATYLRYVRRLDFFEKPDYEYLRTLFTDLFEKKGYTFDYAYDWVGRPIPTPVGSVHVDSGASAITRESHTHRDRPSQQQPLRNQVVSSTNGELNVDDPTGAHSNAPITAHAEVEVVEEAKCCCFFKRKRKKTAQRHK
Sequence of CK1δ(h) (P48730 whole entry): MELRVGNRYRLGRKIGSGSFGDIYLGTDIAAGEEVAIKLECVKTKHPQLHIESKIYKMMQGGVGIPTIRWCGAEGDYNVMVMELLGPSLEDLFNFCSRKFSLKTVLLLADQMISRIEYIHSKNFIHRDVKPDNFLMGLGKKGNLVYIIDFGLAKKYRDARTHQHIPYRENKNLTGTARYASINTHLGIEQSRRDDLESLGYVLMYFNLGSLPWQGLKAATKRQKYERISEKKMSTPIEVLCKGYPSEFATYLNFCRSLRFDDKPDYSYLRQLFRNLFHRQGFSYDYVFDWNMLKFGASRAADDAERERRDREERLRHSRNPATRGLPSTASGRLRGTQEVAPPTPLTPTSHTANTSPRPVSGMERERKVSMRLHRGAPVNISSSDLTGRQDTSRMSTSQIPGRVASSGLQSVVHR

In the case of `CC(C)CCC(=O)[C@]1(O)C(O)=C(C(=O)C(C)C)C(=O)[C@H]1CCC(C)C` [TH2, tetrahydroiso-cohumulone], the kinase inhibition (ACK1(h); 1 μg/ml) is reported as 117% of control, the kinase inhibition (ACK1(h); 5 μg/ml) is reported as 124% of control and the kinase inhibition (ACK1(h); 25 μg/ml) is reported as 97% of control. The kinase inhibition (ACK1(h); 50 μg/ml) was 86% of control, the kinase inhibition (ACK1(h); 100 μg/ml) was 81% of control and the kinase inhibition (CK1γ1(h); 1 μg/ml) was 100% of control. For the same compound, the kinase inhibition (CK1γ1(h); 5 μg/ml) was 101% of control, the kinase inhibition (CK1γ1(h); 25 μg/ml) was 88% of control and the kinase inhibition (CK1γ1(h); 50 μg/ml) was 73% of control. The kinase inhibition (CK1γ1(h); 100 μg/ml) was 48% of control, the kinase inhibition (CK1δ(h); 1 μg/ml) was 105% of control and the kinase inhibition (CK1δ(h); 5 μg/ml) was 112% of control. For the same compound, the kinase inhibition (CK1δ(h); 25 μg/ml) was 108% of control, the kinase inhibition (CK1δ(h); 50 μg/ml) was 80% of control and the kinase inhibition (CK1δ(h); 100 μg/ml) was 53% of control. The kinase inhibition (EGFR(T790M)(h); 1 μg/ml) was 106% of control, the kinase inhibition (EGFR(T790M)(h); 5 μg/ml) was 104% of control and the kinase inhibition (EGFR(T790M)(h); 25 μg/ml) was 104% of control. For the same compound, the kinase inhibition (EGFR(T790M)(h); 50 μg/ml) was 100% of control, the kinase inhibition (EGFR(T790M)(h); 100 μg/ml) was 102% of control and the kinase inhibition (Haspin(h); 1 μg/ml) was 105% of control. The kinase inhibition (Haspin(h); 5 μg/ml) was 95% of control, the kinase inhibition (Haspin(h); 25 μg/ml) was 90% of control and the kinase inhibition (Haspin(h); 50 μg/ml) was 76% of control. For the same compound, the kinase inhibition (Haspin(h); 100 μg/ml) was 49% of control, the kinase inhibition (HIPK2(h); 1 μg/ml) was 120% of control and the kinase inhibition (HIPK2(h); 5 μg/ml) was 111% of control. The kinase inhibition (HIPK2(h); 25 μg/ml) was 115% of control, the kinase inhibition (HIPK2(h); 50 μg/ml) was 110% of control and the kinase inhibition (HIPK2(h); 100 μg/ml) was 97% of control. The kinase inhibition (NEK11(h); 1 μg/ml) was 97% of control, the kinase inhibition (NEK11(h); 5 μg/ml) was 106% of control and the kinase inhibition (NEK11(h); 25 μg/ml) was 96% of control. For the same compound, the kinase inhibition (NEK11(h); 50 μg/ml) was 75% of control, the kinase inhibition (NEK11(h); 100 μg/ml) was 51% of control and the kinase inhibition (PI 3-Kinaseβ(h); 1 μg/ml) was 99% of control. The kinase inhibition (PI 3-Kinaseβ(h); 5 μg/ml) was 95% of control, the kinase inhibition (PI 3-Kinaseβ(h); 25 μg/ml) was 75% of control and the kinase inhibition (PI 3-Kinaseβ(h); 50 μg/ml) was 47% of control. The kinase inhibition (PI 3-Kinaseβ(h); 100 μg/ml) was 28% of control, the kinase inhibition (PI 3-Kinaseδ(h); 1 μg/ml) was 97% of control and the kinase inhibition (PI 3-Kinaseδ(h); 5 μg/ml) was 89% of control. For the same compound, the kinase inhibition (PI 3-Kinaseδ(h); 25 μg/ml) was 62% of control, the kinase inhibition (PI 3-Kinaseδ(h); 50 μg/ml) was 18% of control and the kinase inhibition (PI 3-Kinaseδ(h); 100 μg/ml) was 52% of control. The kinase inhibition (ROCK-I(h); 1 μg/ml) was 110% of control, the kinase inhibition (ROCK-I(h); 5 μg/ml) was 111% of control and the kinase inhibition (ROCK-I(h); 25 μg/ml) was 110% of control. The kinase inhibition (ROCK-I(h); 50 μg/ml) was 100% of control, the kinase inhibition (ROCK-I(h); 100 μg/ml) was 88% of control and the kinase inhibition (TrkB(h); 1 μg/ml) was 136% of control. The kinase inhibition (TrkB(h); 5 μg/ml) was 132% of control, the kinase inhibition (TrkB(h); 25 μg/ml) was 144% of control and the kinase inhibition (TrkB(h); 50 μg/ml) was 118% of control. For the same compound, the kinase inhibition (TrkB(h); 100 μg/ml) was 78% of control.
